Here are results for 4 substances from patent US12173349B2, “Lung protease nanosensors and uses thereof” (Massachusetts Institute of Technology, priority 2018, dated 2024).

*1 amine or outer side, *2 acyl side, *3 side chain or, on linkers, in order; H or OH if unused. Where no end group is shown, it is not given here. [ ]: non-standard residue; d: D form. ξ: configuration not given here. +10F = isotope-labelled Phe, +10, O=[13C]([13C@H]([13CH2][13c]1[13cH][13cH][13cH][13cH][13cH]1)[15NH][*:1])[*:2]; ξβ3hPhg(2-NO2) = O=C(CC(N[*:1])c1ccccc1[N+](=O)[O-])[*:2]; FAM = carboxyfluorescein fluorophore label; AF488 = Alexa Fluor 488 fluorophore label; +1A = isotope-labelled Ala, +1; +1F = isotope-labelled Phe, +1; +2G = isotope-labelled Gly, +2; +4A = isotope-labelled Ala, +4

Experiment [1] concerns 15 proteases in the LUAD protease panel. Description: in vitro recombinant protease screen of FRET-paired substrates. Format: biochemical. The settings on record: fluorescence fold change at 45 minutes; 1 μM substrate, 12.5 nM recombinant enzyme; MP metallo-, SP serine, AP aspartic protease. From the text: Hundreds of peptide sequences have been previously designed and validated as protease substrates, leveraging known catalytic specificities of different protease families, published datasets and substrate sequences in databases like cutDB and MEROPS (Igarashi et al., Nucleic Acids Res 35, D546-549, 2007; Rawlings et al., Nucleic Acids Res 46, D624-D632, 2018). Fourteen of these substrates were nominated in an effort to cover the specificity profiles of metallo-, serine and aspartic endoproteases, all of which were included in the LUAD protease panel, and the catalytic activity of each protease-substrate pair was characterized. Quenched probes that incorporated the 14 peptide substrates were synthesized such that they fluoresce upon proteolytic cleavage to enable real-time monitoring of protease activity in vitro (FIG. 3A and Table 2). Each probe was incubated with each protease in the panel and fluorescence was monitored over 45 minutes. Shown are sample kinetic plots monitoring dequenching of the 14 FRET-paired probes when incubated with (above) and without (below) recombinant matrix metalloproteinase 3 (MMP3) (FIG. 3B). […] See also FIG. 19.
Fluorogenic protease substrates were synthesized by CPC Scientific. Recombinant proteases were purchased from Enzo Life Sciences, R&D Systems and Haematologic Technologies. For recombinant protease assays, fluorogenic substrates PPQ1-14 (1 μM final concentration) were incubated in 30 μL final volume in appropriate enzyme buffer, according to manufacturer specifications, with 12.5 nM recombinant enzyme at 37° C. (FIG. 3). Proteolytic cleavage of substrates was quantified by increases in fluorescence over time by fluorimeter (Tecan Infinite M200 Pro). Enzyme cleavage rates were quantified as relative fluorescence increase over time normalized to fluorescence before addition of protease. Hierarchical clustering was performed in GENE-E, using fluorescence fold changes at 45 minutes.

The subject of experiment [2] is P. aeruginosa strain PA01 lung infection. The experiment in a line: urinary reporter ELISA after intravenous ABNs in bacterial pneumonia model. The experiment is classed as in vivo, mice. The settings on record: for urine signal in ciprofloxacin-treated versus doxycycline-treated mice / urine signal relative to healthy controls: 24 hours post-infection; for urine signal after ciprofloxacin treatment above baseline: 7 days post-infection, 4 days of ciprofloxacin; for increase in urinary reporter after initiation of infection relative to pre-infection: ABNs injected intravenously 24 hours post infection, urine at 1 hour; for ROC AUC, infected from healthy mice: FIG. 11D, n=9 mice; for ROC AUC, ciprofloxacin treated from pre-treatment signal (Treatment): FIG. 12, 7 days post-infection; for ROC AUC, infected from healthy (Infection): FIG. 12, administered prior to drug treatment; for ROC AUC, effective versus ineffective treatment (doxycycline-treated vs ciprofloxacin-treated): treatment started 5 hours post-infection, ABNs 24 hours post-infection. From the text: Peptide substrates were coupled to 40 kDa 8-arm PEG-MAL via terminal cysteines on each peptide to generate ABNs for use in vivo (Dudani et al., Adv Funct Mater, 26, 2919, 2016; Kwong et al., Proc Natl Acad Sci, 112, 12627, 2015). Each substrate is barcoded with an independent ligand and a biotin on a stable urinary peptide reporter that can be measured by a sandwich ELISA after proteolysis of the substrate, release of the reporter, and clearance into the urine (Warren et al., Proc Natl Acad Sci USA, 111, 3671, 2014; Lin et al., ACS Nano, 0) (FIGS. 11A and 16). The selection of a pair of distinct, ligand-encoded reporters enables simultaneous, multiplexed administration of the two nanosensors. Following initiation of the infection, ABNs were injected intravenously after 24 hours and collected urine an hour after the administration of the nanosensors.
To evaluate whether the presently disclosed ABNs could be used to monitor clearance of infection, PA01 was instilled intratracheally into mice, the pair of ABNs was administered the following day to confirm and set a baseline for infection in each individual, and then antibiotic treatment was initiated with ciprofloxacin, a commonly used broad spectrum antibiotic with activity against gram-negative bacteria, including PA01 (Zeiler et al., Ciprofloxacin, 14, 1986). The diagnostic ABN injection and urine collection was repeated 7 days post-infection (with an interceding 4 days of drug treatment) to determine whether the substrates could monitor recovery from infection following effective antibiotic treatment (FIG. 12A). After ciprofloxacin treatment, LAS urine signal returned to baseline, though ELA remained elevated (1.2-fold and 2.2-fold above baseline, respectively; […]).
Individual responses to antimicrobial treatment can be highly variable, dependent upon the strain of pathogen and the presence of antibiotic resistance, and current clinical tests take 24-72 hours to identify antibiotic susceptibility (Caliendo et al., Clin Infect Dis, 57, S139, 2013). In addition, current clinical tests used to visualize lung infections (e.g., chest X-ray and computed tomography) are often unable to distinguish active infections from those that have been adequately treated until several weeks after antibiotic therapy is complete, because the airspace opacifications characteristic of pneumonia remain apparent on routine radiography screens (Bruns et al., J Gen Intern Med, 25, 203, 2010). Therefore, the ability of the infection-tracking ABNs to identify successful versus insufficient treatment on an acute time-scale shortly after therapeutic initiation was sought to be evaluated. Only 5 hours after establishing lung infections with PA01, antibiotic treatment was initiated with either ciprofloxacin (efficacious against P. aeruginosa) or doxycycline (ineffective against gram-negative bacteria including P. aeruginosa) (FIG. 13A). The following day, multiplexed LAS-E and ELA-E ABNs were administered and urine was collected. […] The persistent Pseudomonas immunostaining observed following ciprofloxacin treatment might be derived from residual Pseudomonas antigens remaining from lysed bacteria that had not yet been cleared by the immune system. Alternatively, the reduced LAS sensor reading in these treated mice could reflect a suppression of LasA secretion from bacteria as they are killed by the potent antibiotic.
All animal studies were approved by Massachusetts Institute of Technology's Committee on Animal Care. For infection studies, 5-7 week old female CD-1 mice were innoculated intratracheally with 1.25×10^6 CFU of P. aeruginosa strain PA01 in 50 μL of PBS. Bacteria were cultured overnight in LB broth, then subcultured and grown to log phase (OD600≈0.5). Bacteria were pelleted, washed with sterile PBS, and then resuspended to the requisite concentration for intratracheal administration. Mice were administered buprenorphine and meloxicam several hours after infection. […]
For orientation: ELISA stands for enzyme-linked immunosorbent assay.

Consider “PP04: ABN: reporter e(+2G)Vndnee(+2G)FFs(+4A)r, ANP, substrate PLGLRSW, nanocarrier PEG8-40 kDa (chain 1 [dE][+2G]V[dN][dD][dN][dE][dE][+2G]FF[dS][+4A][dR][ξβ3hPhg(2-NO2)]; also: ANP photolabile linker joins reporter and substrate, sites not given here, PEG8-40 kDa nanocarrier, site not given here)”, for which, in experiment [1], the “protease class(es) cleaving the substrate in vitro” value is on record as “SP/MP”.
Take “PP10: ABN: reporter e(+2G)(+6V)ndneeG(+10F)(+1F)s(+1A)r, ANP, substrate ILSRIVGGG, nanocarrier PEG8-40 kDa (chain 1 [dE][+2G][+6V][dN][dD][dN][dE][dE]G[+10F][+1F][dS][+1A][dR][ξβ3hPhg(2-NO2)]; also: ANP photolabile linker joins reporter and substrate, sites not given here, PEG8-40 kDa nanocarrier, site not given here)”: in experiment [1], the “protease class(es) cleaving the substrate in vitro” value is given as “MP/SP/AP”.
Consider “ELA-E: elastase substrate with FAM ligand-encoded reporter and biotin (SEQ ID NO: 48), coupled to 40 kDa 8-arm PEG-MAL ([dE]G[dV][dN][dD][dN][dE][dE]G[dF][dF][dS][dA][dR]K(FAM)GGAAFAGC; also: biotin, site not given here, coupled to 40 kDa 8-arm PEG-MAL, site not given here)”, for which, in experiment [2], the “urine signal in ciprofloxacin-treated versus doxycycline-treated mice” value is listed as “not significantly different”; the “urine signal after ciprofloxacin treatment above baseline” value came out at 2.2 fold; the “increase in urinary reporter after initiation of infection relative to pre-infection” value is recorded as 2.6 fold; the “ROC AUC, infected from healthy mice” value came out at 1.00. For the same substance, in experiment [2], the “ROC AUC, ciprofloxacin treated from pre-treatment signal (Treatment)” value came to 0.72; the “ROC AUC, infected from healthy (Infection)” value is recorded as 1.00; the “ROC AUC, effective versus ineffective treatment (doxycycline-treated vs ciprofloxacin-treated)” value came out at 0.536. Besides, in experiment [2] (ciprofloxacin-treated mice), the “urine signal relative to healthy controls” value is “robustly elevated”. Besides, the “urine signal relative to healthy controls” value in experiment [2] (doxycycline-treated mice) is reported as “robustly elevated”.
For “LAS-E: LasA substrate with AF488 ligand-encoded reporter and biotin (SEQ ID NO: 46), coupled to 40 kDa 8-arm PEG-MAL ([dE]G[dV][dN][dD][dN][dE][dE]G[dF][dF][dS][dA][dR]K(AF488)GGLGGGAGC; also: biotin, site not given here, coupled to 40 kDa 8-arm PEG-MAL, site not given here)”, in experiment [2], the “urine signal in ciprofloxacin-treated versus doxycycline-treated mice” value was “significantly lower”; the “urine signal after ciprofloxacin treatment above baseline” value is 1.2 fold; the “increase in urinary reporter after initiation of infection relative to pre-infection” value came out at 1.8 fold; the “ROC AUC, infected from healthy mice” value is listed as 0.86. Also, in experiment [2], the “ROC AUC, ciprofloxacin treated from pre-treatment signal (Treatment)” value is 0.88; the “ROC AUC, infected from healthy (Infection)” value turned out to be 0.92; the “ROC AUC, effective versus ineffective treatment (doxycycline-treated vs ciprofloxacin-treated)” value stood at 0.893. For the same substance, in experiment [2] (doxycycline-treated mice), the “urine signal relative to healthy controls” value is “elevated”.
